According to ChEMBL document CHEMBL1124720, “4'-[(4-Piperidyl)carbonyl]methanesulfonanilides as potent, selective, bioavailable class III antiarrhythmic agents” (J Med Chem, 1990):
Blank lines part the entries; values can stand above or below the compound they belong to. The source made the active and inactive calls. The rule behind the calls is not given here.

Assays:
[1] = tested on: Canis familiaris; assay: Percent change in Effective refractory period after intravenous administration of 0.01 mg/kg in Anesthetized Dogs; format: functional, Canis lupus familiaris
[2] = tested on: Canis familiaris; assay: Percent change in Effective refractory period after intravenous administration of 0.003 mg/kg in Anesthetized Dogs; format: functional, Canis lupus familiaris
[3] = tested on: Canis familiaris; assay: Percent change in Heart rate after intravenous administration of 0.003 mg/kg in Anesthetized Dogs; format: functional, Canis lupus familiaris
[4] = tested on: Canis familiaris; assay: Percent change in Mean Blood pressure after intravenous administration of 0.01 mg/kg in Anesthetized Dogs; format: functional, Canis lupus familiaris
[5] = tested on: Canis familiaris; assay: Percent change in Effective refractory period after intravenous administration of 0.03 mg/kg in Anesthetized Dogs; format: functional, Canis lupus familiaris
[6] = species on record: Cavia porcellus; assay: Concentration (0.1-10 uM) that causes 10% prolongation in the action potential duration at 90% […] in Guinea pig right ventricular papillary muscles; format: functional, Muscle tissue
[7] = tested on: Canis familiaris; assay: Percent change in Heart rate after intravenous administration of 0.01 mg/kg in Anesthetized Dogs; format: functional, Canis lupus familiaris
[8] = tested on: Canis familiaris; assay: Percent change in Heart rate after intravenous administration of 0.03 mg/kg in Anesthetized Dogs; format: functional, Canis lupus familiaris
[9] = tested on: Canis familiaris; assay: Percent change in Mean Blood pressure after intravenous administration of 0.03 mg/kg in Anesthetized Dogs; format: functional, Canis lupus familiaris
[10] = tested on: Canis familiaris; assay: Percent change in rate of left ventricular pressure after intravenous administration of 0.3 mg/kg in Anesthetized Dogs; format: functional, Canis lupus familiaris, Heart left ventricle
[11] = tested on: Canis familiaris; assay: Percent change in QTc interval after intravenous administration of 1 mg/kg in Anesthetized Dogs; format: functional, Canis lupus familiaris
[12] = tested on: Canis familiaris; assay: Percent change in rate of left ventricular pressure after intravenous administration of 1 mg/kg in Anesthetized Dogs; format: functional, Canis lupus familiaris, Heart left ventricle
[13] = tested on: Canis familiaris; assay: Percent change in Heart rate after intravenous administration of 1 mg/kg in Anesthetized Dogs; format: functional, Canis lupus familiaris
[14] = species on record: Cavia porcellus; assay: Concentration (1-100 uM) that causes 10% prolongation in the action potential duration at 90% […] in Guinea pig right ventricular papillary muscles; format: functional, Muscle tissue
[15] = tested on: Canis familiaris; assay: Percent change in Mean Blood pressure after intravenous administration of 3 mg/kg in Anesthetized Dogs; format: functional, Canis lupus familiaris
[16] = species on record: Cavia porcellus; assay: Maximum percent increase in 90% repolarization at a concentration of 100 uM in Guinea pig right ventricular papillary muscles; format: functional, Muscle tissue
[17] = tested on: Canis familiaris; assay: Percent change in Mean Blood pressure after intravenous administration of 0.3 mg/kg in Anesthetized Dogs; format: functional, Canis lupus familiaris
[18] = tested on: Canis familiaris; assay: Percent change in Effective refractory period after intravenous administration of 3 mg/kg in Anesthetized Dogs; format: functional, Canis lupus familiaris
[19] = tested on: Canis familiaris; assay: Percent change in Heart rate after intravenous administration of 0.3 mg/kg in Anesthetized Dogs; format: functional, Canis lupus familiaris
[20] = tested on: Canis familiaris; assay: Percent change in rate of left ventricular pressure after intravenous administration of 3 mg/kg in Anesthetized Dogs; format: functional, Canis lupus familiaris, Heart left ventricle
[21] = tested on: Canis familiaris; assay: Percent change in QTc interval after intravenous administration of 3 mg/kg in Anesthetized Dogs; format: functional, Canis lupus familiaris
[22] = species on record: Cavia porcellus; assay: The maximum percent change in the maximum rate rise of the action Potential in Guinea pig right ventricular papillary muscles at concentration 1-100 uM; NS=Not significant; format: functional; settings: Muscle tissue
[23] = tested on: Canis familiaris; assay: Percent change in Mean Blood pressure after intravenous administration of 1 mg/kg in Anesthetized Dogs; format: functional, Canis lupus familiaris
[24] = tested on: Canis familiaris; assay: Percent change in Heart rate after intravenous administration of 3 mg/kg in Anesthetized Dogs; format: functional, Canis lupus familiaris
[25] = tested on: Canis familiaris; assay: Percent change in QTc interval after intravenous administration of 0.3 mg/kg in Anesthetized Dogs; format: functional, Canis lupus familiaris
[26] = tested on: Canis familiaris; assay: Percent change in Effective refractory period after intravenous administration of 1 mg/kg in Anesthetized Dogs; format: functional, Canis lupus familiaris
[27] = tested on: Canis familiaris; assay: Percent change in Effective refractory period after intravenous administration of 0.3 mg/kg in Anesthetized Dogs; format: functional, Canis lupus familiaris
[28] = tested on: Canis familiaris; assay: Percent change in QTc interval after intravenous administration of 0.01 mg/kg in Anesthetized Dogs; format: functional, Canis lupus familiaris
[29] = Half life of beta-elimination phase in plasma after oral administration of 10-50 mg/kg in conscious dogs; Range is 2.2-2.9; format: ADME, organism-based, Canis lupus familiaris; settings: dog
[30] = tested on: Canis familiaris; assay: Percent change in Effective refractory period after intravenous administration of 0.01 mg/kg in Anesthetized Dogs
[31] = tested on: Canis familiaris; assay: Percent change in QTc interval after intravenous administration of 0.1 mg/kg in Anesthetized Dogs; format: functional, Canis lupus familiaris
[32] = tested on: Canis familiaris; assay: Percent change in rate of left ventricular pressure after intravenous administration of 0.1 mg/kg in Anesthetized Dogs; format: functional, Canis lupus familiaris, Heart left ventricle
[33] = tested on: Canis familiaris; assay: Percent change in Effective refractory period after intravenous administration of 0.1 mg/kg in Anesthetized Dogs; format: functional, Canis lupus familiaris
[34] = species on record: Cavia porcellus; assay: The maximum percent change in the maximum rate rise of the action Potential in Guinea pig right ventricular papillary muscles at concentration 0.1-100 uM; NS=Not significant; format: functional; settings: Muscle tissue
[35] = tested on: Canis familiaris; assay: Percent change in rate of left ventricular pressure after intravenous administration of 0.03 mg/kg in Anesthetized Dogs; format: functional, Canis lupus familiaris, Heart left ventricle
[36] = tested on: Canis familiaris; assay: Percent change in rate of left ventricular pressure after intravenous administration of 0.01 mg/kg in Anesthetized Dogs; format: functional, Canis lupus familiaris, Heart left ventricle
[37] = tested on: Canis familiaris; assay: Percent change in Heart rate after intravenous administration of 0.1 mg/kg in Anesthetized Dogs; format: functional, Canis lupus familiaris
[38] = tested on: Canis familiaris; assay: Percent change in Mean Blood pressure after intravenous administration of 0.1 mg/kg in Anesthetized Dogs; format: functional, Canis lupus familiaris
[39] = species on record: Cavia porcellus; assay: Concentration (0.1-100 uM) that causes 10% prolongation in the action potential duration at 90% […] in Guinea pig right ventricular papillary muscles; format: functional, Muscle tissue
[40] = tested on: Canis familiaris; assay: Percent change in QTc interval after intravenous administration of 0.03 mg/kg in Anesthetized Dogs; format: functional, Canis lupus familiaris
[41] = Half life of beta-elimination phase in plasma after oral administration of 10-50 mg/kg in conscious dogs; Range is 1.4-2.1; format: ADME, organism-based, Canis lupus familiaris; settings: dog
[42] = tested on: Canis familiaris; assay: Percent change in Heart rate after intravenous administration of 0.01 mg/kg in Anesthetized Dogs
[43] = species on record: Cavia porcellus; assay: Concentration (1-10 uM) that causes 10% prolongation in the action potential duration at 90% […] in Guinea pig right ventricular papillary muscles; format: functional, Muscle tissue
[44] = species on record: Cavia porcellus; assay: The maximum percent change in the maximum rate rise of the action Potential in Guinea pig right ventricular papillary muscles, at compound concentration 1-10 uM; NS=Not significant; format: functional; settings: Muscle tissue
[45] = species on record: Cavia porcellus; assay: Maximum percent increase in 90% repolarization at a concentration of 10 uM in Guinea pig right ventricular papillary muscles; format: functional, Muscle tissue

Compound: Cc1cccc(CCN2CCC(C(=O)c3ccc(NS(C)(=O)=O)cc3)CC2)n1.Cl.Cl
- ERP (delta) [1]: 15%
- ERP (delta) [2]: 6%
- HR(delta) [3]: -8%
- mBP(delta) [4]: -4%
- ERP (delta) [5]: 24%
- C10APD90 [6]: 0.13 µM
- HR(delta) [7]: -20%
- HR(delta) [8]: -30%
- mBP(delta) [9]: -6%

Compound: CC(C)NCC(O)c1ccc(NS(C)(=O)=O)cc1 (stereo not drawn) [SOTALOL]
- LV dP/dTmax(delta) [10]: -1%
- QTc delta [11]: 11%
- LV dP/dTmax(delta) [12]: -4%
- HR(delta) [13]: -19%
- C10APD90 [14]: 16.3 µM
- mBP(delta) [15]: -13%
- Max APD90 (delta) [16]: 21%
- mBP(delta) [17]: 0%
- ERP (delta) [18]: 26%
- HR(delta) [19]: -6%
- LV dP/dTmax(delta) [20]: 5%
- QTc delta [21]: 23%
- Vmax [22]: inactive
- mBP(delta) [23]: -7%
- HR(delta) [24]: -30%
- QTc delta [25]: 4%
- ERP (delta) [26]: 14%
- ERP (delta) [27]: 5%

- half-life [29]: 132 min
Compound: CS(=O)(=O)Nc1ccc(C(=O)C2CCN(CCCc3ccncc3)CC2)cc1.Cl.Cl
- QTc delta [28]: 7%
- ERP (delta) [30]: 11%
- Max APD90 (delta) [16]: 33%
- QTc delta [31]: 21%
- mBP(delta) [4]: 2%
- ERP (delta) [5]: 15%
- HR(delta) [7]: -6%
- HR(delta) [8]: -20%
- mBP(delta) [9]: -5%
- LV dP/dTmax(delta) [32]: 13%
- ERP (delta) [33]: 19%
- Vmax [34]: inactive
- LV dP/dTmax(delta) [35]: 13%
- LV dP/dTmax(delta) [36]: 7%
- HR(delta) [37]: -28%
- mBP(delta) [38]: -9%
- C10APD90 [39]: 0.19 µM
- QTc delta [40]: 15%

- half-life [41]: 84 min
Compound: CS(=O)(=O)Nc1ccc(C(=O)C2CCN(CCc3cccnc3)CC2)cc1.Cl.Cl
- ERP (delta) [1]: 6%
- QTc delta [28]: 5%
- C10APD90 [14]: 1.51 µM
- Max APD90 (delta) [16]: 20%
- QTc delta [31]: 25%
- mBP(delta) [4]: -2%
- ERP (delta) [5]: 10%
- HR(delta) [8]: -8%
- mBP(delta) [9]: -2%
- Vmax [22]: inactive
- LV dP/dTmax(delta) [32]: 26%
- ERP (delta) [33]: 19%
- LV dP/dTmax(delta) [35]: 22%
- LV dP/dTmax(delta) [36]: 8%
- HR(delta) [37]: -17%
- HR(delta) [42]: -3%
- mBP(delta) [38]: -8%
- QTc delta [40]: 13%

Compound: CCCCCCC[N+](CC)(CC)CCCCc1ccc(Cl)cc1 [CLOFILIUM]
- C10APD90 [43]: 1 µM
- Vmax [44]: inactive
- Max APD90 (delta) [45]: 13%
